According to patent publication US8632982B2, “Biomarkers for liver injury” (Institute for Systems Biology, priority 2009, dated 2014):

Tested on: C57BL6/J mice
Assay: Murine model: liver damage induced with acetaminophen, serum markers by SPR antibody array and Western blot
Format: in vivo
Details: male C57BL6/J mice, 300 mg/kg intraperitoneally
Experimental: The effectiveness of various proteins as markers was tested by inducing liver damage in mice using acetaminophen and then assessing serum for various proteins by surface plasmon resonance (SPR) detection of complex formation with the relevant antibody and confirmed by Western blot. The known marker, AST, was used as a control.
Nine week old male C57BL6/J mice were fasted for 24 hours and then administered 300 mg/kg acetaminophen intraperitoneally. The mice were euthanized with CO2 and whole blood was collected via cardiac puncture at various time intervals. The whole blood was incubated at 4° C. for 12 hours and centrifuged at 2,000 g for 10 minutes to obtain serum which was stored at −80° C. and then analyzed by SPR antibody array as described above and validated by Western blot. (The concentration of the known marker serum […] (AST) was determined by enzymatic assay.)

CC(=O)Nc1ccc(O)cc1 [acetaminophen]
plasma levels of plasminogen and RBP4 (Western blot, FIG. 3) (12-24 hours): decrease
serum levels of control marker AST (enzymatic assay) (same time as the novel markers): corresponding increase
plasma level of the 12 markers whose level increases in the event of liver injury (Western blot, FIG. 3) (fasted 24 hours, after 12-24 hours, after which the levels declined): elevated levels
